Assay results: US11319304B2, “Pyridine quinoline compounds as MGLUR4 allosteric potentiators, compositions, and methods of treating neurological dysfunction” (Vanderbilt University, priority 2017, dated 2022)

Target: mGluR4 (Homo sapiens, UniProt Q14833)
Assay: mGlu4 PAM potentiation assay, CHO cells transfected with human mGluR4, Ca2+-sensitive dye fluorescence
Type: cell-based
Description: The disclosed compounds and compositions can be evaluated for their ability to act as a potentiator of metabotropic glutamate receptor activity, in particular mGluR4 activity, by any suitable known methodology known in the art. For example, Chinese Hamster Ovary (CHO) cells transfected with human mGluR4 or HEK cells co-transfected with rat mGluR4 and the G-protein regulated Inwardly Rectifying Potassium channel (GIRK) were plated in clear bottom, assay plates for assay in a Hamamatsu FDSS Fluorometric Plate Reader. The cells were loaded with either a Ca2+-sensitive fluorescent dye or the thallium responsive dye and the plates were washed and placed into a suitable kinetic plate reader. For human mGluR4 assays, a fluorescence baseline was established for 3-5 seconds, the disclosed compounds were then added to the cells, and the response in cells was measured. Approximately two and a half minutes later, a concentration of mGluR4 orthosteric agonist (e.g. glutamate, L-AP4, or L-SOP) eliciting approximately 20% (EC20) of the maximal agonist response was added to the cells, and the response was measured. Two minutes later, a concentration of mGluR4 agonist (e.g. glutamate, L-AP4, or L-SOP) eliciting 80% (EC80) of the maximal agonist response was added to the cells, and the response was measured. For rat mGluR4/GIRK experiments, a baseline was established for approximately five seconds, disclosed compounds were added, and either an EC20 or EC80 concentration of agonist was added approximately two and one half minutes later. Potentiation or antagonism of the agonist response of mGluR4 by the disclosed compounds was observed as an increase or decrease in response to the EC20 concentration of agonist in the presence of compound compared to the response to agonist in the absence of compound. Similarly, potentiation or antagonism of the agonist response of mGluR4 by the disclosed Compounds was observed as an increase or decrease in response to the EC80 concentration of agonist in the presence of compound compared to the response to agonist in the absence of compound.
The above described assay operated in two modes. In the first mode, a range of concentrations of the disclosed compounds are added to cells, followed by a single fixed concentration of agonist. If the compound acts as a potentiatior, an EC50 value for potentiation and a maximum extent of potentiation by the compound at this concentration of agonist is determined by non-linear curve fitting. If the compound acts as an antagonist, an IC50 value is determined by non-linear curve fitting. In the second mode, several fixed concentrations of the disclosed compounds are added to various wells on a plate, followed by a range in concentrations of agonist for each concentration of disclosed compound. The EC50 values for the agonist at each concentration of compound are determined by non-linear curve fitting. A decrease in the EC50 value of the agonist with increasing concentrations of the sample compound (a leftward shift of the agonist concentration-response curve) is an indication of the degree of mGluR4 potentiation at a given concentration of the sample compound. A decrease in the maximal response of the agonist with increasing concentrations of the sample compounds, with or without a rightward shift in agonist potency, is an indication of the degree of antagonism at mGluR4. The second mode also indicates whether the sample compounds also affect the maximum response to mGluR4 to agonists.

Chain of mGluR4 (Q14833 33-912 limits assumed): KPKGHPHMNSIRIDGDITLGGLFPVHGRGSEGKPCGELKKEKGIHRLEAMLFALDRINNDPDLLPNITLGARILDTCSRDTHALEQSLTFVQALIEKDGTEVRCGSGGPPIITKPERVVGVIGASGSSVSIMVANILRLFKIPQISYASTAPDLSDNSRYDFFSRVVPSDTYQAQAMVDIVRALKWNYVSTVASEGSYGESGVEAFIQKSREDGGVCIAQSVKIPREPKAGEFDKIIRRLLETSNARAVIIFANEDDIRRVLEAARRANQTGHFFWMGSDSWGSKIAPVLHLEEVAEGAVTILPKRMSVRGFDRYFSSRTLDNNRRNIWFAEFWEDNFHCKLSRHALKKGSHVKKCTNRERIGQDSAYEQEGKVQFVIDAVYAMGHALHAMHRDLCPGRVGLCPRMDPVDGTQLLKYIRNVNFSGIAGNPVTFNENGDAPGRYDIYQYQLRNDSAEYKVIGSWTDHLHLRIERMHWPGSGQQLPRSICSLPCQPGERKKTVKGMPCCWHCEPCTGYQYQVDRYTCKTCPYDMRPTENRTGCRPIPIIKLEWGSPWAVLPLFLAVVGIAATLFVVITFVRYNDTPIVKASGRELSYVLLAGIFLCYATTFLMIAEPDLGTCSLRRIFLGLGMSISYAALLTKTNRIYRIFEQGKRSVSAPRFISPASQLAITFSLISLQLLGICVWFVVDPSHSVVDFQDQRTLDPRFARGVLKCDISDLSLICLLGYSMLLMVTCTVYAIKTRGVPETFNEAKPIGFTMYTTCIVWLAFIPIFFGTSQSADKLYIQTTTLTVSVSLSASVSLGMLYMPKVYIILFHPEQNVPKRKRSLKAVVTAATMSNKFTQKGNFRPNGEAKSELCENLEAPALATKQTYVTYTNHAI

| EC50 | Compound |
| --- | --- |
| 56 nM | O=C(Nc1ccc2c(OCC3CCOCC3)nccc2c1)c1ccccn1 [Compound 1] |
| 108 nM | Nc1cccnc1C(=O)Nc1ccc2c(OCC3CCOCC3)nccc2c1 [Compound 2] |
| 436 nM | CCOCCOc1nccc2cc(NC(=O)c3ccccn3)ccc12 [Compound 3] |
| 354 nM | CCOCCOc1nccc2cc(NC(=O)c3ncccc3N)ccc12 [Compound 4] |
| 229 nM | CCOCCOc1nccc2cc(NC(=O)c3ncccc3O)ccc12 [Compound 5] |
| 166 nM | CO[C@H](C)COc1nccc2cc(NC(=O)c3ccccn3)ccc12 [Compound 6] |
| 152 nM | CO[C@H](C)COc1nccc2cc(NC(=O)c3ncccc3N)ccc12 [Compound 7] |
| 159 nM | O=C(Nc1ccc2c(OCC3CCCCO3)nccc2c1)c1ccccn1 (stereo not drawn) [Compound 8] |
| 242 nM | Nc1cccnc1C(=O)Nc1ccc2c(OCC3CCCCO3)nccc2c1 (stereo not drawn) [Compound 9] |
| 529 nM | Nc1cccnc1C(=O)Nc1ccc2c(O[C@H]3CCOC3)nccc2c1 [Compound 10] |
| 883 nM | O=C(Nc1ccc2c(O[C@H]3CCOC3)nccc2c1)c1ncccc1O [Compound 11] |
| 411 nM | O=C(Nc1ccc2c(OC3CCOCC3)nccc2c1)c1ccccn1 [Compound 12] |
| 290 nM | Nc1cccnc1C(=O)Nc1ccc2c(OC3CCOCC3)nccc2c1 [Compound 13] |
| 331 nM | O=C(Nc1ccc2c(OC3CCOCC3)nccc2c1)c1ncccc1O [Compound 14] |
| 59.5 nM | O=C(Nc1ccc2c(OCC3CCOC3)nccc2c1)c1ccccn1 (stereo not drawn) [Compound 15] |
| 71.4 nM | Nc1cccnc1C(=O)Nc1ccc2c(OCC3CCOC3)nccc2c1 (stereo not drawn) [Compound 16] |
| 56.3 nM | O=C(Nc1ccc2c(OCC3CCOC3)nccc2c1)c1ncccc1O (stereo not drawn) [Compound 17] |
| 262 nM | O=C(Nc1ccc2c(OCC3CCOC3)nccc2c1)c1ncccc1F (stereo not drawn) [Compound 18] |
| 339 nM | O=C(Nc1ccc2c(OCC3CCOC3)nccc2c1)c1ncccc1Cl (stereo not drawn) [Compound 19] |
| 739 nM | COCCOc1nccc2cc(NC(=O)c3ccccn3)ccc12 [Compound 20] |
| 227 nM | COCCOc1nccc2cc(NC(=O)c3ncccc3N)ccc12 [Compound 21] |
| 502 nM | COCCOc1nccc2cc(NC(=O)c3ncccc3O)ccc12 [Compound 22] |
| 146 nM | CC1(C)CC(Oc2nccc3cc(NC(=O)c4ccccn4)ccc23)CCO1 (stereo not drawn) [Compound 23] |
| 310 nM | CC1(C)CC(Oc2nccc3cc(NC(=O)c4ncccc4N)ccc23)CCO1 (stereo not drawn) [Compound 24] |
| 147 nM | CC1(C)CC(Oc2nccc3cc(NC(=O)c4ncccc4O)ccc23)CCO1 (stereo not drawn) [Compound 25] |

| EC50 | Compound |
| --- | --- |
| 264 nM | CC(C)OCCOc1nccc2cc(NC(=O)c3ccccn3)ccc12 [Compound 26] |
| 286 nM | CC(C)OCCOc1nccc2cc(NC(=O)c3ncccc3N)ccc12 [Compound 27] |
| 419 nM | CC(C)(C)OCCOc1nccc2cc(NC(=O)c3ccccn3)ccc12 [Compound 28] |
| 794 nM | CC(C)(C)OCCOc1nccc2cc(NC(=O)c3ncccc3N)ccc12 [Compound 29] |
| 493 nM | CC(C)(C)OCCOc1nccc2cc(NC(=O)c3ncccc3O)ccc12 [Compound 30] |
| 246 nM | CC1(COc2nccc3cc(NC(=O)c4ccccn4)ccc23)CCOCC1 [Compound 31] |
| 325 nM | CC1(COc2nccc3cc(NC(=O)c4ncccc4N)ccc23)CCOCC1 [Compound 32] |
| 269 nM | CC1(COc2nccc3cc(NC(=O)c4ncccc4O)ccc23)CCOCC1 [Compound 33] |
| 115 nM | CC1(C)CC(COc2nccc3cc(NC(=O)c4ccccn4)ccc23)CCO1 (stereo not drawn) [Compound 34] |
| 227 nM | CC1(C)CC(COc2nccc3cc(NC(=O)c4ncccc4N)ccc23)CCO1 (stereo not drawn) [Compound 35] |
| 940 nM | CC1(C)CC(Oc2nccc3cc(NC(=O)c4ccccn4)ccc23)C(C)(C)O1 (stereo not drawn) [Compound 36] |
| 88.6 nM | CC1CC(COc2nccc3cc(NC(=O)c4ccccn4)ccc23)CCO1 (stereo not drawn) [Compound 37] |
| 135 nM | CC1CC(COc2nccc3cc(NC(=O)c4ncccc4N)ccc23)CCO1 (stereo not drawn) [Compound 38] |
| 302 nM | CC1CC(COc2nccc3cc(NC(=O)c4ncccc4O)ccc23)CCO1 (stereo not drawn) [Compound 39] |
| 183 nM | O=C(Nc1ccc2c(OC3CCOCC3F)nccc2c1)c1ccccn1 (stereo not drawn) [Compound 40] |
| 83.6 nM | Nc1cccnc1C(=O)Nc1ccc2c(OC3CCOCC3F)nccc2c1 (stereo not drawn) [Compound 41] |
| 92.2 nM | O=C(Nc1ccc2c(OC3CCOCC3F)nccc2c1)c1ncccc1O (stereo not drawn) [Compound 42] |
| 908 nM | CC1CC(Oc2nccc3cc(NC(=O)c4ccccn4)ccc23)CCO1 (stereo not drawn) [Compound 43] |
| 804 nM | CC1CC(Oc2nccc3cc(NC(=O)c4ncccc4N)ccc23)CCO1 (stereo not drawn) [Compound 44] |
| 447 nM | CC1CC(Oc2nccc3cc(NC(=O)c4ncccc4O)ccc23)CCO1 (stereo not drawn) [Compound 45] |
| 339 nM | CC1COCC1COc1nccc2cc(NC(=O)c3ccccn3)ccc12 (stereo not drawn) [Compound 46] |
| 456 nM | CC1COCC1COc1nccc2cc(NC(=O)c3ncccc3N)ccc12 (stereo not drawn) [Compound 47] |
| 452 nM | CC1(C)CC(COc2nccc3cc(NC(=O)c4ccccn4)ccc23)CO1 (stereo not drawn) [Compound 48] |
| 665 nM | CC1(C)CC(COc2nccc3cc(NC(=O)c4ncccc4N)ccc23)CO1 (stereo not drawn) [Compound 49] |
| 364 nM | CO[C@@H](C)COc1nccc2cc(NC(=O)c3ccccn3)ccc12 [Compound 51] |

| EC50 | Compound |
| --- | --- |
| 288 nM | CO[C@@H](C)COc1nccc2cc(NC(=O)c3ncccc3N)ccc12 [Compound 52] |
| 244 nM | CO[C@@H](C)COc1nccc2cc(NC(=O)c3ncccc3O)ccc12 [Compound 53] |
| 915 nM | O=C(Nc1ccc2c(OC3CCSC3)nccc2c1)c1ccccn1 (stereo not drawn) [Compound 54] |
| 634 nM | Nc1cccnc1C(=O)Nc1ccc2c(OC3CCS(=O)(=O)C3)nccc2c1 (stereo not drawn) [Compound 55] |
| 210 nM | O=C(Nc1ccc2c(OCC3CCOC3)nccc2c1)c1nccs1 (stereo not drawn) [Compound 56] |
| 159 nM | O=C(Nc1ccc2c(OCC3CCOC3)nccc2c1)c1ccsn1 (stereo not drawn) [Compound 57] |
| 217 nM | O=C(Nc1ccc2c(OCC3CCOC3)nccc2c1)c1ncc[nH]1 (stereo not drawn) [Compound 58] |
| 817 nM | Cn1ccnc1C(=O)Nc1ccc2c(OCC3CCOC3)nccc2c1 (stereo not drawn) [Compound 59] |
| 82.9 nM | O=C(Nc1ccc2c(OCC3CCOC3)ncc(F)c2c1)c1ccccn1 (stereo not drawn) [Compound 60] |
| 114 nM | Nc1cccnc1C(=O)Nc1ccc2c(OC[C@@H]3CCOC3)nccc2c1 [Compound 61] |
| 63 nM | Nc1cccnc1C(=O)Nc1ccc2c(OC[C@H]3CCOC3)nccc2c1 [Compound 62] |
| 88.7 nM | Nc1cccnc1C(=O)Nc1ccc2c(OCC3CCOC3)ncc(F)c2c1 (stereo not drawn) [Compound 63] |
| 144 nM | O=C(Nc1ccc2c(OCC3CCOCC3)ncc(F)c2c1)c1ccccn1 [Compound 65] |
| 152 nM | Nc1cccnc1C(=O)Nc1ccc2c(OCC3CCOCC3)ncc(F)c2c1 [Compound 66] |
| 246 nM | O=C(Nc1ccc2c(OCC3CCOCC3)ncc(F)c2c1)c1ncccc1O [Compound 67] |
| 90.5 nM | Nc1cccnc1C(=O)Nc1ccc2c(OCC3COCCO3)ncc(F)c2c1 (stereo not drawn) [Compound 68] |
| 421 nM | O=C(Nc1ccc2c(OCC3COCCO3)ncc(F)c2c1)c1ccccn1 (stereo not drawn) [Compound 69] |
| 710 nM | O=C(Nc1ccc2c(OCC3COCCO3)ncc(F)c2c1)c1ncccc1O (stereo not drawn) [Compound 70] |
| 493 nM | Nc1cccnc1C(=O)Nc1ccc2c(O[C@H]3CCOC3)ncc(F)c2c1 [Compound 71] |
| 211 nM | O=C(Nc1ccc2c(OCC3CCOC3)nccc2c1)c1ccc(F)cn1 (stereo not drawn) [Compound 72] |
| 992 nM | O=C(Nc1ccc2c(OCC3CCOC3)nccc2c1)c1ncc(F)cc1F (stereo not drawn) [Compound 73] |
| 800 nM | O=C(Nc1ccc2c(OCC3CCOC3)nccc2c1)c1nc(F)ccc1F (stereo not drawn) [Compound 74] |
| 715 nM | O=C(Nc1ccc2c(NC3CC(F)(F)C3)nccc2c1)c1ccccn1 [Compound 75] |
| 616 nM | CC1(C)CC(Nc2nccc3cc(NC(=O)c4ncccc4N)ccc23)CCO1 (stereo not drawn) [Compound 76] |
| 922 nM | CC1(C)COCCC1Nc1nccc2cc(NC(=O)c3ncccc3N)ccc12 (stereo not drawn) [Compound 77] |
